Test results taken from patent US12678416B2, “L-triiodothyronine (T3) for use in limiting microvascular obstruction” (UNI-PHARMA KLEON TSETIS PHARMACEUTICAL LABORATORIES S.A., priority 2019, dated 2026).
Entries after “also recorded” stand apart in the source; their conditions may differ.

Tests used:
[1] = tested on: reperfused STEMI patients; conditions: high-dose intracoronary, cohort of 247 reperfused STEMI patients; cited from earlier work
[2] = tested on: isolated rat heart; conditions: ex vivo, cited from earlier work; for myocardial injury as indicated by apoptosis: at the onset of reperfusion
[3] = tested on: patients after acute myocardial infarction; conditions: long-term administration of high doses; cited from earlier work
[4] = Thy-REPAIR phase II study: T3 levels in serum during hospitalization; type: in vivo, patients
Experimental: (§1) The potential effect of early administration of high dose TH (acute treatment) after an index event has been also investigated in experimental models of ischemia-reperfusion (I/R) using isolated rat heart preparations. […] Thy-REPAIR explores the effects of high-dose T3 treatment intravenously starting immediately after reperfusion and continuing for 48 hours in patients with anterior or anterolateral STEMI undergoing primary PCI. This is a double-blind randomized trial. The primary end point of this study is recovery of myocardial function after 6 months of the index event as this is assessed by Cardiac Magnetic Resonance (CMR) at discharge and at 6 months after acute myocardial infarction. This study also explores the potential effects of T3 treatment on infarct size and cardiac remodeling by assessing changes in LV volumes and geometry.
(§2) The dose administered is 0.8 μg/kg intravenously bolus starting immediately after successful opening of the culprit vessel has been established in the hemodynamic lab and followed by an infusion of 0.113 μg/kg/h intravenously for 48 hours.

[5] = tested on: STEMI patients; assay: Thy-REPAIR: left ventricular ejection fraction by echocardiography; type: in vivo; conditions: early and late after the index event, T3 vs placebo
Experimental: FIG. 12: Left ventricular ejection fraction assessed by echocardiography at different time points in STEMI patients treated with placebo and T3
as §2

[6] = tested on: patients with STEMI and low serum FT3 levels; conditions: oral T3 for 6 months, cited from earlier work
[7] = tested on: STEMI patients after PPCI; assay: Thy-REPAIR: contrast-enhanced cardiac magnetic resonance (MVO, infarct size, LV function); type: in vivo
Experimental: as §1
(§3) The invention in particular concerns L-triiodothyronine for use in the treatment as set forth in the appending claims. In the broader sense, the present invention concerns L-triiodothyronine for use in the treatment of microvascular obstruction. Treatment of MVO in this context relates to the lessening of microvascular obstruction in comparison to patients which were not supplied with T3. MVO may be determined on the basis of both Cardiac Magnetic Resonance (CMR) imaging, being performed 7-12 days following primary percutaneous coronary intervention (PPCI) and restoration of ST elevation in electrocardiogram (ECG). Infarct size and ejection fraction was measured by CMR. Infarct size was also assessed enzymatically by measuring levels of troponin in blood.
as §2
Actually, cardiac magnetic resonance with gadolinium represents the gold-standard method for detection of MVO in patients with STEMI. MVO can be quantified in each patient as the percentage of left ventricular (LV) myocardium that is not adequately perfused despite restoration of blood flow in the occluded large coronary artery.
The incidence of MVO was assessed using the value of 0.47% as a cut-off point for patients with large and small extent of MVO as previously described. This analysis was additionally performed and provides a strong evidence about the T3 effect on MVO. In the placebo group (n=9), a large extent of MVO was found in 56% of patients consistent with previous published reports in the literature.

[8] = tested on: STEMI patients; assay: Thy-REPAIR: heart rate during hospitalization; type: in vivo; conditions: during the first 3 days, high dose T3 vs placebo
Experimental: as §1, §2
Despite the possible increase in oxygen consumption, no increase in infarct size (IS) is found with T3 in contrast to the current belief (FIG. 3).

[9] = tested on: STEMI patients after PPCI; assay: Thy-REPAIR: ST resolution in electrocardiograms on admission and after PPCI; type: in vivo; conditions: placebo 34%, p=0.05
Source text: as §3, §2
These unexpected findings concerning MVO were also supported by other measurements. Changes in ST elevation in electrocardiograms before and after PPCI measured as ST restoration (%) are closely correlated with the extent of MVO (FIG. 6).

[10] = tested on: STEMI patients; assay: Thy-REPAIR: troponin levels in blood over time; type: in vivo; conditions: T3 vs placebo groups
Source text: as §3, §2
Troponin levels in blood over time are mainly a measure of myocardial injury. According to the present invention, troponin levels are similar between T3 and placebo groups indicating a similar infarct size in accordance with CMR data. Thus, it seems that the effect of T3 on MVO is independent from infarct size. (FIG. 8).

## Nc1ncnc2c1ncn2[C@@H]1O[C@H](CO)[C@@H](O)[C@H]1O [adenosine]
[1]
  MVO and MI size: failed to reduce

## N[C@@H](Cc1cc(I)c(Oc2cc(I)c(O)c(I)c2)c(I)c1)C(=O)O [T4, L-thyroxine]
[2]
  myocardial injury as indicated by apoptosis: no effect

## N[C@H](Cc1cc(I)c(Oc2cc(I)c(O)c(I)c2)c(I)c1)C(=O)O [D-thyroxine]
[3]
  mortality: increased

## N[C@@H](Cc1cc(I)c(Oc2ccc(O)c(I)c2)c(I)c1)C(=O)O [T3, L-triiodothyronine]
[4]; at discharge (7th day)
  T3 levels in serum relative to normal range: return to normal
[4]; for 72 hours
  T3 levels in serum relative to normal range: far above normal range
[4]; human, serum, at 24 hours, 0.8 μg/kg iv bolus then 0.113 μg/kg/h iv for 48 hours, placebo 0.79 (0.06), p<0.01
  concentration at 24 h: 5.5 ng/mL
[4]; human, serum, at 48 hours, 0.8 μg/kg iv bolus then 0.113 μg/kg/h iv for 48 hours, placebo 0.76 (0.06), p<0.01
  concentration at 48 h: 4.5 ng/mL
[5]
  LV ejection fraction by echocardiography: improvement
[6]; commenced 72 h after onset of STEMI, max 15 μg/m^2/day, 37 patients
  regional cardiac dysfunction: effective in reducing
[6]; commenced 72 h after onset of STEMI
  safety of T3 replacement therapy: safe
[6]
  left ventricular ejection fraction and myocardial infarct size by cardiac MRI: did not show any benefit
[7]; CMR at discharge (7-12 days after the event), T3 vs placebo
  extent of mean microvascular obstruction: less
[7]; T3 vs placebo, at discharge
  infarct size (IS) by CMR: no increase; also recorded: similar
[7]; at 6 months, T3 vs placebo
  cardiac function by CMR: improvement
[7]; at discharge and at 6 months
  cardiac function: improved
[7]; at discharge, T3 vs placebo
  myocardial function (EF %, LVEDVi and end-systolic volumes by CMR): improved
[7]; correlation in T3 group
  recovery of function (ejection fraction at 6 months) versus myocardial injury (infarct size by CMR): independent
[7]; cut-off 0.47%, T3 group n=12, placebo (n=9) 56%, p=0.05
  patients with a large extent of MVO: 25%
[2]
  myocardial injury as indicated by apoptosis: less
[2]; high dose at the onset of reperfusion
  post-ischemic recovery of function: enhanced
[8]
  heart rate: non-significant increase
[9]
  mean ST resolution after PPCI: 54%
[10]
  troponin levels in blood over time: similar
